For experiment [1], the target named is Histamine H2 receptor (Homo sapiens, UniProt P25021).
In experiment [2] the target is Hrh3 protein (Rattus norvegicus, UniProt Q5PPG3).
Experiment [3] concerns the target Histamine H4 receptor (Homo sapiens, UniProt Q9H3N8).

pKi: −log10 of the molar value.

Sequence of Histamine H4 receptor (Q9H3N8 whole entry): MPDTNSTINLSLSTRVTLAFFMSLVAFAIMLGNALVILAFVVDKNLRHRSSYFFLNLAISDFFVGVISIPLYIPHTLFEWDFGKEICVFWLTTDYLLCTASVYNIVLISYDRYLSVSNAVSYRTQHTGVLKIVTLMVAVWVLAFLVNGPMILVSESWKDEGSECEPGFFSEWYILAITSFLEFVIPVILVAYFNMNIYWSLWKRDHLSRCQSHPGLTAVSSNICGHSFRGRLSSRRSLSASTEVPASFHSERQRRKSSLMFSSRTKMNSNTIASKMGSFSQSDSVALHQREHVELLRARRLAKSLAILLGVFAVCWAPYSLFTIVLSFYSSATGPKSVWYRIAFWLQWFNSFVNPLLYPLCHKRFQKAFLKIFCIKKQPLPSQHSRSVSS
Sequence of Histamine H2 receptor (P25021 whole entry): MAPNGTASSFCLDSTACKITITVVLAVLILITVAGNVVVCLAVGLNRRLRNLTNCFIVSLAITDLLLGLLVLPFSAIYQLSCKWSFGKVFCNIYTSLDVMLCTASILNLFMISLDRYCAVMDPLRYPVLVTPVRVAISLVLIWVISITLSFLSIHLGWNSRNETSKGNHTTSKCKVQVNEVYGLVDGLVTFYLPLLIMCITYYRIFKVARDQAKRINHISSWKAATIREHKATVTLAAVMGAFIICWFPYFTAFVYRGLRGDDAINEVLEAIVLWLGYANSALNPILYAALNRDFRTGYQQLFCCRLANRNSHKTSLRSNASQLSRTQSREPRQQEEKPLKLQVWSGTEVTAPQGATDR
Sequence of Hrh3 protein (Q5PPG3 whole entry): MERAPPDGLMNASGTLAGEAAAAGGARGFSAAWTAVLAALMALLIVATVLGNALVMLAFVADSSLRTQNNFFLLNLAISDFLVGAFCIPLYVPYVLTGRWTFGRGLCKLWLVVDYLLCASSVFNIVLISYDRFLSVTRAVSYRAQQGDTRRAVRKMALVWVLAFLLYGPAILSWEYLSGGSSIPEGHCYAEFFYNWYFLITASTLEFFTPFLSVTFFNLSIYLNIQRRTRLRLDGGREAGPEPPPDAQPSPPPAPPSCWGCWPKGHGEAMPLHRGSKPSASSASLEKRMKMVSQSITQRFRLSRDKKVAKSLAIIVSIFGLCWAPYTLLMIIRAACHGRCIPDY

The term pKi denotes the negative decadic logarithm of the Ki, by convention in mol/L. Low values mean a high Ki, high ones a low Ki. On to `c1cc(OCCCN2CCCCC2)ccc1CN1CCCCC1` [1-(3-(4-(piperidin-1-ylmethyl)phenoxy)propyl)piperidine], for which the figures for the pKi in experiment [1], in experiment [2] and in experiment [3] were less than 5.00, 8.90 and less than 5.00, respectively.

These data come from BindingDB's records for doi:10.1038/sj.bjp.0705964 (Johnson & Johnson Pharmaceutical Research and Development, 2004).
